The source of these data is patent publication US9718822B2, “Macrocyclic compounds as Trk kinase inhibitors” (Array BioPharma, Inc., priority 2010, dated 2017).

SMILES strings stand for the structures. Where two headings read alike, the source gives them in different places.

For data set [1], the target named is His-tagged recombinant human TrkA (cytoplasmic domain) (Homo sapiens (Human), UniProt P04629). Nature of the data set: TrkA Binding Assay (LanthaScreen Eu Kinase Binding Assay). The procedure:
The ability of a compound to bind to TrkA was measured by Invitrogen's LanthaScreen™ Eu Kinase Binding Assay. […] After a 60-minute incubation at 22° C., the reaction was measured using the EnVision via TR-FRET dual wavelength detection, and the POC was calculated from the emission ratio. The compound dose response data was fit to a 4-parameter logistic model and IC50 was defined as the concentration of compound at 50 POC.

Data set [2] addresses histidine-tagged recombinant human TrkA, cytoplasmic domain (Homo sapiens (Human), UniProt P04629). Nature of the data set: TrkA ELISA Assay. Also: 2.5 nM TrkA. The data set is classed as biochemical. As to conditions: read-out: TrkA Elisa Enzyme Assay IC50. Here is the method:
An enzyme-linked immunosorbant assay (ELISA) was used to assess TrkA kinase activity in the presence of inhibitors. Immulon 4HBX 384-well microtiter plates (Thermo part #8755) were coated with a 0.025 mg/mL solution of poly (Glu, Ala, Tyr; 6:3:1; Sigma P3899). […] The assay buffer consisted of 25 mM MOPS pH 7.5, 0.005% (v/v) Triton X-100 and 5 mM MgCl2. The reaction mixture was removed from the plate by washing with PBS containing 0.1% (v/v) Tween 20. The phosphorylated reaction product was detected using 0.2 μg/mL of a phosphotyrosine specific monoclonal antibody (clone PY20) conjugated to horseradish peroxidase in conjunction with the TMB Peroxidase Substrate System (KPL). After the addition of 1M phosphoric acid, the chromogenic substrate color intensity was quantitated via absorbance at 450 nm. IC50 values were calculated using either a 4 or 5-parameter logistic curve fit.
Table 1 provides averaged IC50 values for compounds of the invention when tested in this assay.
For orientation: An ELISA detects its analyte on a solid surface through an enzyme-linked reagent.

Sequence of histidine-tagged recombinant human TrkA, cytoplasmic domain (P04629 440-796): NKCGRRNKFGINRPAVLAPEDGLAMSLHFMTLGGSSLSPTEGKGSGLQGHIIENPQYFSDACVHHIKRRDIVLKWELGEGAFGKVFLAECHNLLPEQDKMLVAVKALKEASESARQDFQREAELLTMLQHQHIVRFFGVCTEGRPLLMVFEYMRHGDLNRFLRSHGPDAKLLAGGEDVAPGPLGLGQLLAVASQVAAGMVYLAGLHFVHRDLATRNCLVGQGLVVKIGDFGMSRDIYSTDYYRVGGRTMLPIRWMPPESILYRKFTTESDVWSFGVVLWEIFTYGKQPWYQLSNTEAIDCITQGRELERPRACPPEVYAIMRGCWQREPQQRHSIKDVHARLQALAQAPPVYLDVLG
Sequence of His-tagged recombinant human TrkA (cytoplasmic domain) (P04629 440-796): as above

Consider `O=C1NC[C@@H](O)COc2ncc(F)cc2[C@H]2CCCN2c2ccn3ncc1c3n2` [Example 7, (6R,15R)-9-fluoro-15-hydroxy-13-oxa-2,11,17,21,22,25-hexaazapentacyclo-[17.5.2.0^2,6.0^7,12.0^22,26]hexacosa-1(25),7,9,11,19(26),20,23-heptaen-18-one], for which the IC50 in data set [1] and in data set [2] was 1 to 100 nM each time. The ring closure, yield of all isomers (from O=C(NC[C@@H](O)CCl)c1cnn2ccc(N3CCC[C@@H]3c3cc(F)c[nH]c3=O)nc12, ether bond, Cs2CO3, DMF, 98.6 mM, 85.0 °C, 1.0 h) was determined as 40%.

Where the note is “from O=C(NC[C@H](O)CCl)c1cnn2ccc(N3CC(F)(F)CC3c3cc(F)ccc3O)nc12, ether bond, Cs2CO3, DMF, 20.0 mM, 85.0 °C, 0.5 h”, `O=C1NC[C@H](O)COc2ccc(F)cc2C2CC(F)(F)CN2c2ccn3ncc1c3n2` (some centres unmarked) showed a ring closure, yield of all isomers of 44%.

Regarding `O=C1NCCCc2ncc(F)cc2[C@H]2CCCN2c2ccn3ncc1c3n2` [Example 32, (6R)-9-fluoro-2,11,16,20,21,24-hexaazapentacyclo[16.5.2.0^2,6.0^7,12.0^21,25]pentacosa-1(24),7,9,11,18(25),19,22-heptaen-17-one], the half-inhibitory concentration (IC50) in data set [1] lay within 1 to 100 nM. In addition, under “from NCCCc1ncc(F)cc1[C@H]1CCCN1c1ccn2ncc(C(=O)O)c2n1, amide bond, HATU, DMF, 8.4 mM, 3.0 h”, the ring closure, yield of all isomers turned out to be 39%.

As to `O=C1NCCCOc2ncc(F)cc2[C@H]2COC(=O)N2c2ccn3ncc1c3n2` [Example 30, (6S)-9-fluoro-4,13-dioxa-2,11,17,21,22,25-hexaazapentacyclo [17.5.2.0^2,6.0^7,12.0^22,26]hexacosa-1(25),7(12),8,10,19(26),20,23-heptaene-3,18-dione], in data set [2], the IC50 is 1 to 100 nM. This compound also gave a ring closure, yield of all isomers (from O=C(NCCCCl)c1cnn2ccc(N3C(=O)OC[C@@H]3c3cc(F)c[nH]c3=O)nc12, ether bond, Cs2CO3, DMF, 26.7 mM, 65.0 °C, 48.5 h) of 41%.

Consider `O=C1NCCOc2ncc(F)cc2[C@H]2COC(=O)N2c2ccn3ncc1c3n2` [Example 31, (6S)-9-fluoro-4,13-dioxa-2,11,16,20,21,24-hexaazapentacyclo [16.5.2.0^2,6.0^7,12.0^21,25]pentacosa-1(24),7(12),8,10,18(25),19,22-heptaene-3,17-dione], for which the IC50 in data set [1] and in data set [2] was 100 to 3000 nM in each case.

Consider `O=C1Nc2ncccc2COc2ncc(F)cc2[C@H]2CCCN2c2ccn3ncc1c3n2` [Example 39, (6R)-9-fluoro-13-oxa-2,11,19,21,25,26,29-heptaazahexacyclo [21.5.2.0^2,6.0^7,12.0^15,20.0^26,30]triaconta-1(29),7,9,11,15(20),16,18,23(30),24,27-decaen-22-one], for which the IC50 in data set [1] fell in the range of 1 to 100 nM. Moreover, the ring closure, yield of all isomers (from O=C(Nc1ncccc1CCl)c1cnn2ccc(N3CCC[C@@H]3c3cc(F)cnc3O)nc12, ether bond, Cs2CO3, DMF, 84.8 mM, 60.0 °C, 4.0 h, 4 steps) came out at 2.2%.

`O=C1NCCCOc2ncc(F)cc2[C@H]2CCCN2c2ccn3ncc1c3n2` [Example 3, (6R)-9-fluoro-13-oxa-2,11,17,21,22,25-hexaazapentacyclo[17.5.2.0^2,6.0^7,12.0^22,26]hexacosa-1(25),7,9,11,19(26),20,23-heptaen-18-one]: the IC50 in data set [1] and in data set [2] was 1 to 100 nM each time. Also, under “from O=C(NCCCCl)c1cnn2ccc(N3CCC[C@@H]3c3cc(F)cnc3O)nc12, ether bond, Cs2CO3, DMF, […], 85.0 °C, 16.0 h”, the ring closure, yield of all isomers turned out to be 44%.

As to `O=C1NCC(F)(F)COc2ncc(F)cc2[C@H]2CCCN2c2ccn3ncc1c3n2` [Example 19, (6R)-9,15,15-trifluoro-13-oxa-2,11,17,21,22,25-hexaazapentacyclo[17.5.2.0^2,6.0^7,12.0^22,26]hexacosa-1(25),7,9,11,19(26),20,23-heptaen-18-one], the IC50 in data set [1] and in data set [2] was 1 to 100 nM each time.

As to `O=C(CO)N1CCOc2ccc(F)cc2[C@H]2CCCN2c2ccn3ncc(c3n2)C1` [Example 23, 1-[(6R)-9-fluoro-13-oxa-2,16,20,21,24-pentaazapentacyclo[16.5.2.0^2,6.0^7,12.0^21,25]pentacosa-1(24),7,9,11,18(25),19,22-heptaen-16-yl]-2-hydroxyethan-1-one], the IC50 in data set [1] and in data set [2] was 1 to 100 nM throughout.

Take `O=C1OCCOc2ncc(F)cc2[C@H]2CCCN2c2ccn3ncc1c3n2` [Example 14, (6R)-9-fluoro-13,16-dioxa-2,11,20,21,24-pentaazapentacyclo[16.5.2.0^2,6.0^7,12.0^21,25]pentacosa-1(24),7,9,11,18(25),19,22-heptaen-17-one]: in data set [2], the IC50 fell in the range of 1 to 100 nM. In addition, the ring closure, yield of all isomers (from O=C(OCCCl)c1cnn2ccc(N3CCC[C@@H]3c3cc(F)c[nH]c3=O)nc12, ether bond, Cs2CO3, DMF, 22.2 mM, 90.0 °C, 16.0 h) came to 31%.

For the compound `CC1(C)CCc2ncc(F)cc2[C@H]2CCCN2c2ccn3ncc(c3n2)C(=O)N1` [Example 37], in data set [1], the IC50 is 1 to 100 nM. In addition, the ring closure, yield of all isomers (from COC(=O)c1cnn2ccc(N3CCC[C@@H]3c3cc(F)cnc3CCC(C)(C)NC(=O)OC(C)(C)C)nc12, amide bond, EDCI/HOBt/Et3N, DMF, 39.4 mM, 45.0 °C, 18.0 h, 3 steps) amounted to 48.3%.

On to `O=C1NCCCCn2cc(F)cc(c2=O)[C@H]2CCCN2c2ccn3ncc1c3n2` [Example 11, (6R)-9-fluoro-2,11,16,20,21,24-hexaazapentacyclo[16.5.2.1^7,11.0^2,6.0^21,25]hexacosa-1(24),7,9,18(25),19,22-hexaene-17,26-dione], for which the IC50 in data set [1] and in data set [2] was 1 to 100 nM in each case.

Regarding `O=C1NCCCOc2ccc(F)cc2[C@H]2CCCN2c2ccn3ncc1c3n2` [Example 20, (6R)-9-fluoro-13-oxa-2,17,21,22,25-pentaazapentacyclo[17.5.2.0^2,6.0^7,12.0^22,26]hexacosa-1(25),7,9,11,19(26),20,23-heptaen-18-one], the IC50 in data set [1] and in data set [2] was 1 to 100 nM each time. For the setting “from CCOC(=O)c1cnn2ccc(N3CCC[C@@H]3c3cc(F)ccc3OCCCN)nc12, amide bond, DIEA, EtOH, 230.0 mM, 200.0 °C”, this compound registered a ring closure, yield of all isomers of 50%.

As for `O=C1NOCCOc2ncc(F)cc2[C@H]2CCCN2c2ccn3ncc1c3n2` [Example 16, (6R)-9-fluoro-13,16-dioxa-2,11,17,21,22,25-hexaazapentacyclo [17.5.2.0^2,6.0^7,12.0^22,26]hexacosa-1(25),7,9,11,19(26),20,23-heptaen-18-one], the IC50 in data set [1] and in data set [2] was 1 to 100 nM throughout. Also, the ring closure, yield of all isomers (from O=C(NOCCCl)c1cnn2ccc(N3CCC[C@@H]3c3cc(F)c[nH]c3=O)nc12, ether bond, Cs2CO3, DMF, 100.0 mM, 90.0 °C, […]) came out at 1%.

Regarding `O=C1NCCCOc2cccc(n2)[C@H]2CCCN2c2ccn3ncc1c3n2` [Example 2, (6R)-12-oxa-2,16,20,21,24,26-hexaazapentacyclo[16.5.2.1^7,11.0^2,6.0^21,25]hexacosa-1(24),7(26),8,10,18(25),19,22-heptaen-17-one], the IC50 in data set [1] and in data set [2] was 1 to 100 nM each time.

On to `O=C1NCCOc2ncc(F)cc2[C@H]2CCCN2c2ccn3ncc1c3n2` [Example 9, (6R)-9-fluoro-13-oxa-2,11,16,20,21,24-hexaazapentacyclo[16.5.2.0^2,6.0^7,12.0^21,25]pentacosa-1(24),7,9,11,18(25),19,22-heptaen-17-one], for which the IC50 lay within 1 to 100 nM in data set [1] (averaged IC50 values, TR-FRET, 60-minute incubation at 22° C., 2% DMSO final) and 1 to 100 nM in data set [2] (averaged IC50 values, […] TrkA, 500 μM ATP, 25 minutes at ambient temperature). For the setting “from O=C(NCCCl)c1cnn2ccc(N3CCC[C@@H]3c3cc(F)c[nH]c3=O)nc12, ether bond, Cs2CO3, DMF, […], 85.0 °C, 0.5 h”, this compound yielded a ring closure, yield of all isomers of 24%.

On to `CN1CCCOc2ncc(F)cc2[C@H]2CCCN2c2ccn3ncc(c3n2)C1=O` [Example 18, (6R)-9-fluoro-17-methyl-13-oxa-2,11,17,21,22,25-hexaazapentacyclo[17.5.2.0^2,6.0^7,12.0^22,26]hexacosa-1(25),7,9,11,19(26),20,23-heptaen-18-one], for which the concentration for half-maximal inhibition (IC50) in data set [1] and in data set [2] was 1 to 100 nM each time. Under “from CN(CCCCl)C(=O)c1cnn2ccc(N3CCC[C@@H]3c3cc(F)c[nH]c3=O)nc12, ether bond, Cs2CO3, DMF, 10.0 mM, 90.0 °C, 0.25 h”, the ring closure, yield of all isomers was determined as 36%.

On to `O=C1NC[C@H](O)COc2ccc(F)cc2[C@H]2C[C@@H](O)CN2c2ccn3ncc1c3n2` [Example 41, (4R,6R,15S)-9-fluoro-4,15-dihydroxy-13-oxa-2,17,21,22,25-pentaazapentacyclo [17.5.2.0^2,6.0^7,12.0^22,26]hexacosa-1(25),7(12),8,10,19(26),20,23-heptaen-18-one], for which, in data set [1], the IC50 was in the range of 1 to 100 nM. This compound also displayed a ring closure, yield of all isomers (from O=C(NC[C@H](O)CCl)c1cnn2ccc(N3C[C@H](O)CC3c3cc(F)ccc3O)nc12, ether bond, Cs2CO3, DMF, 21.6 mM, 85.0 °C, 0.5 h) of 16.2%.

The term IC50 denotes the concentration that gives 50% inhibition.
